Literature values as cited in patent US5565433A, “Sulfated β-glycolipid derivatives as cell adhesion inhibitors” (Bristol-Myers Squibb Company, priority 1996, dated 1996).

Tested on: P-selectin
Details: cells grown in the presence of sodium selenate; cited from earlier work

O=[Se](=O)(O)O [sodium selenate]
inhibition of P-selectin binding to myeloid cell lines (in words): can be inhibited
